Assay results from ChEMBL document CHEMBL3046232, “Synthesis, pharmacological evaluation and molecular docking studies of indanone derivatives” (2012).

What was measured:
Format in all cases: functional
Mus musculus [1] = experiment: Analgesic activity in Mus musculus Swiss albino (mouse) assessed as increase in reaction time of paw licking or jump response at 50 mg/kg, po after 90 min by hot plate method
Mus musculus [2] = experiment: Analgesic activity in Mus musculus Swiss albino (mouse) assessed as increase in reaction time of paw licking or jump response at 50 mg/kg, po after 60 min by hot plate method
Mus musculus [3] = experiment: Analgesic activity in Mus musculus Swiss albino (mouse) assessed as increase in reaction time of paw licking or jump response at 50 mg/kg, po after 30 min by hot plate method
Rattus norvegicus [4] = experiment: Anti-inflammatory activity in Rattus norvegicus Wistar albino (rat) assessed as protection against carrageenan-induced paw edema at 50 mg/kg after 3 hr
Rattus norvegicus [5] = experiment: Anti-inflammatory activity in Rattus norvegicus Wistar albino (rat) assessed as protection against carrageenan-induced paw edema at 50 mg/kg after 2 hr
Rattus norvegicus [6] = experiment: Anti-inflammatory activity in Rattus norvegicus Wistar albino (rat) assessed as protection against carrageenan-induced paw edema at 50 mg/kg after 90 min
Rattus norvegicus [7] = experiment: Anti-inflammatory activity in Rattus norvegicus Wistar albino (rat) assessed as protection against carrageenan-induced paw edema at 50 mg/kg after 60 min
Rattus norvegicus [8] = experiment: Anti-inflammatory activity in Rattus norvegicus Wistar albino (rat) assessed as protection against carrageenan-induced paw edema at 50 mg/kg after 30 min
Penicillium chrysogenum [9] = experiment: Antimicrobial activity against at Penicillium chrysogenum at 100 ug/ml by cup-plate method; conditions: read-out: IZ
Penicillium chrysogenum [10] = experiment: Antimicrobial activity against at Penicillium chrysogenum at 50 ug/ml by cup-plate method; conditions: read-out: IZ
Penicillium chrysogenum [11] = experiment: Antimicrobial activity against at Penicillium chrysogenum at 25 ug/ml by cup-plate method; conditions: read-out: IZ
Aspergillus niger [12] = experiment: Antimicrobial activity against at Aspergillus niger at 100 ug/ml by cup-plate method; conditions: read-out: IZ
Aspergillus niger [13] = experiment: Antimicrobial activity against at Aspergillus niger at 50 ug/ml by cup-plate method; conditions: read-out: IZ
Bacillus subtilis [14] = experiment: Antimicrobial activity against at Bacillus subtilis at 100 ug/ml by cup plate method; conditions: read-out: IZ
Aspergillus niger [15] = experiment: Antimicrobial activity against at Aspergillus niger at 25 ug/ml by cup-plate method; conditions: read-out: IZ
Bacillus subtilis [16] = experiment: Antimicrobial activity against at Bacillus subtilis at 50 ug/ml by cup plate method; conditions: read-out: IZ
Escherichia coli [17] = experiment: Antimicrobial activity against at Escherichia coli at 100 ug/ml by cup-plate method; conditions: read-out: IZ
Escherichia coli [18] = experiment: Antimicrobial activity against at Escherichia coli at 50 ug/ml by cup-plate method; conditions: read-out: IZ
Escherichia coli [19] = experiment: Antimicrobial activity against at Escherichia coli at 25 ug/ml by cup-plate method; conditions: read-out: IZ
Bacillus subtilis [20] = experiment: Antimicrobial activity against at Bacillus subtilis at 25 ug/ml by cup plate method; conditions: read-out: IZ

| SMILES | Activity (Mus musculus [1]) [%] | Activity (Mus musculus [2]) [%] | Activity (Mus musculus [3]) [%] | Activity (Rattus norvegicus [4]) [%] | Activity (Rattus norvegicus [5]) [%] | Activity (Rattus norvegicus [6]) [%] | Activity (Rattus norvegicus [7]) [%] | Activity (Rattus norvegicus [8]) [%] | zone of inhibition at 100 µg/mL (Penicillium chrysogenum [9]) [mm] | zone of inhibition at 50 µg/mL (Penicillium chrysogenum [10]) [mm] | zone of inhibition at 25 µg/mL (Penicillium chrysogenum [11]) [mm] | zone of inhibition at 100 µg/mL (Aspergillus niger [12]) [mm] | zone of inhibition at 50 µg/mL (Aspergillus niger [13]) [mm] | zone of inhibition at 100 µg/mL (Bacillus subtilis [14]) [mm] | zone of inhibition at 25 µg/mL (Aspergillus niger [15]) [mm] | zone of inhibition at 50 µg/mL (Bacillus subtilis [16]) [mm] | zone of inhibition at 100 µg/mL (Escherichia coli [17]) [mm] | zone of inhibition at 50 µg/mL (Escherichia coli [18]) [mm] | zone of inhibition at 25 µg/mL (Escherichia coli [19]) [mm] | zone of inhibition at 25 µg/mL (Bacillus subtilis [20]) [mm] |
| --- | --- | --- | --- | --- | --- | --- | --- | --- | --- | --- | --- | --- | --- | --- | --- | --- | --- | --- | --- | --- |
| COc1ccc(-c2onc3c2C(=O)c2ccccc2-3)cc1OC | 23.54 | 19.02 | 12.61 | 7.32 | 6.52 | 8.12 | 7.21 | 6.21 | 13.8 | 5.25 | 4.75 | 17.8 | 13.8 | 19.7 | 6.5 | 12.8 | 24.5 | 11 | 7.25 |  |
| O=C1c2ccccc2-c2noc(-c3ccccc3)c21 | 17.23 | 12.03 | 6.23 | 26.21 | 28.42 | 30.19 | 27.61 | 21.44 | 19.5 | 12.8 | 6 | 22.8 | 16.8 | 16.3 | 9.75 | 12 | 30.9 | 16.9 | 9.79 | 9 |
| O=C1c2ccccc2-c2noc(-c3ccccc3[N+](=O)[O-])c21 | 9.84 | 7.62 | 5.24 | 9.52 | 8.01 | 7.11 | 6.33 | 7.22 | 14.2 | 8.25 | 5.25 | 19 | 7.25 | 14.2 |  | 7.5 | 19.8 | 12.8 | 5.25 | 4.25 |
| O=C1c2ccccc2-c2noc(-c3cccc([N+](=O)[O-])c3)c21 | 14.2 | 10.38 | 5.44 | 6.44 | 7.44 | 5.52 | 3.99 | 2.02 | 13.5 | 7 |  | 17 | 13.2 | 13.5 | 4.25 | 7 | 17 | 13.2 |  | 4 |
| O=C1c2ccccc2-c2noc(-c3ccc(Cl)cc3)c21 | 16.1 | 12.8 | 7.18 | 16.21 | 15.11 | 12.16 | 12 | 6.31 | 12 | 8.5 |  | 13 | 9.75 | 18.5 | 5.5 | 11.5 | 16 | 6.75 | 6 | 5.25 |
| Cc1ccc(-c2onc3c2C(=O)c2ccccc2-3)cc1 | 27.01 | 23.12 | 15.55 | 30.33 | 36.45 | 45.72 | 43.66 | 35.29 | 15.5 | 6.75 |  | 28 | 18.5 | 15 | 10.5 | 10.5 | 25.3 | 15 | 10 | 6.77 |
| O=C1c2ccccc2-c2noc(-c3ccc(O)cc3)c21 | 27.87 | 23.74 | 16.52 | 33.45 | 36.33 | 42.6 | 41.46 | 31.16 | 14 | 6 | 4.35 | 21 | 13 | 17.5 | 6 | 11.2 | 13.8 | 5.25 | 4.75 |  |
| CN(C)c1ccc(-c2onc3c2C(=O)c2ccccc2-3)cc1 | 9.93 | 5.65 | 5.02 | 20.1 | 19.21 | 14.23 | 8.45 | 7.11 | 12.2 | 7.25 | 4 | 13 | 7.5 | 12 | 5.5 | 4.75 | 17.2 | 12 |  |  |
| COc1ccc(-c2onc3c2C(=O)c2ccccc2-3)cc1 | 8.04 | 5.13 | 3.06 | 9.21 | 12.32 | 16.38 | 12.21 | 7.71 | 19.6 | 12.7 | 5.35 | 17 | 11.7 | 14.8 | 7.25 | 5.5 | 20.2 |  | 5.5 |  |
| COc1cc(-c2onc3c2C(=O)c2ccccc2-3)cc(OC)c1OC | 12.54 | 9.75 | 4.48 | 26.32 | 29.15 | 29.14 | 22.38 | 17.21 | 19 | 9.25 | 5.5 | 19.2 | 11.2 | 18.8 | 6.49 | 11.5 | 27.8 | 16.5 |  | 5.25 |
| COc1cccc(-c2onc3c2C(=O)c2ccccc2-3)c1O | 16.43 | 11.44 | 6 | 30.41 | 34.32 | 37.62 | 32.22 | 25.44 | 16.6 | 10.5 | 5.35 | 29.6 | 16.5 | 16 | 10.8 |  | 21 | 14.7 | 10.2 | 6.75 |
| CC1(C)S[C@@H]2[C@H](NC(=O)[C@H](N)c3ccccc3)C(=O)N2[C@H]1C(=O)O [AMPICILLIN] |  |  |  |  |  |  |  |  |  |  |  |  |  | 21.1 |  | 12.1 | 32.7 | 20.4 | 11.2 | 9.1 |
| OC(Cn1cncn1)(Cn1cncn1)c1ccc(F)cc1F [FLUCONAZOLE] |  |  |  |  |  |  |  |  | 21.2 | 14.2 | 7.32 | 31.8 | 21.7 |  | 11.9 |  |  |  |  |  |
| COc1ccc2c(c1)c(CC(=O)O)c(C)n2C(=O)c1ccc(Cl)cc1 [INDOMETHACIN] |  |  |  | 20.22 | 20.15 | 21.12 | 23.22 | 28.56 |  |  |  |  |  |  |  |  |  |  |  |  |
